# From ChEMBL document CHEMBL5465560, “Selectivity Literature for EUbOPEN Chemogenomic Library” (2024)
# What was measured:
# [1] = biological target: T1, Serine/threonine-protein kinase TBK1 (Homo sapiens) (UniProt Q9UHD2); test: Selectivity interaction (KinomeScan (DiscoverX)) EUB0000229b TBK1; details: at 10 µM
# T1 sequence (whole entry): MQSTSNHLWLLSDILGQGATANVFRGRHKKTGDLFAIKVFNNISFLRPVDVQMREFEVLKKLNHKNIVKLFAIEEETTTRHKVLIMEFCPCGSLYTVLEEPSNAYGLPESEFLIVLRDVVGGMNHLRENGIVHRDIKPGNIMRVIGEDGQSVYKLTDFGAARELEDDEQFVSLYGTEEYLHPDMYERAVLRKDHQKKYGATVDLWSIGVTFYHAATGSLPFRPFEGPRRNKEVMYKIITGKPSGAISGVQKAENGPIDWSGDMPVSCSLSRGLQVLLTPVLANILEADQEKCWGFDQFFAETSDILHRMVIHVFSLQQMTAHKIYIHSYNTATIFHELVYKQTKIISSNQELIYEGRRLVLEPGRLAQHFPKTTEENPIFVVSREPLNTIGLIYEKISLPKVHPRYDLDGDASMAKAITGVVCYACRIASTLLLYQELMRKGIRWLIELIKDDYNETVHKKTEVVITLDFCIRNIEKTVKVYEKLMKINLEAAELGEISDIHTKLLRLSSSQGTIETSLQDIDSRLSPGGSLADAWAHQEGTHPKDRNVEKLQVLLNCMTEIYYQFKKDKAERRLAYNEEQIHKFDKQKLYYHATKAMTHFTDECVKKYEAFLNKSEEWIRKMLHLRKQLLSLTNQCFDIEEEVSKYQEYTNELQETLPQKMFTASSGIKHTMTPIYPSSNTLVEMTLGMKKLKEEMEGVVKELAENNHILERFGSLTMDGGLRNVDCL
# [2] = biological target: Mitogen-activated protein kinase 9 (Homo sapiens, UniProt P45984); test: Selectivity interaction (Kinase panel (DSF assay)) EUB0001559a MAPK9
# Sequence of Mitogen-activated protein kinase 9 (P45984 whole entry, looked up): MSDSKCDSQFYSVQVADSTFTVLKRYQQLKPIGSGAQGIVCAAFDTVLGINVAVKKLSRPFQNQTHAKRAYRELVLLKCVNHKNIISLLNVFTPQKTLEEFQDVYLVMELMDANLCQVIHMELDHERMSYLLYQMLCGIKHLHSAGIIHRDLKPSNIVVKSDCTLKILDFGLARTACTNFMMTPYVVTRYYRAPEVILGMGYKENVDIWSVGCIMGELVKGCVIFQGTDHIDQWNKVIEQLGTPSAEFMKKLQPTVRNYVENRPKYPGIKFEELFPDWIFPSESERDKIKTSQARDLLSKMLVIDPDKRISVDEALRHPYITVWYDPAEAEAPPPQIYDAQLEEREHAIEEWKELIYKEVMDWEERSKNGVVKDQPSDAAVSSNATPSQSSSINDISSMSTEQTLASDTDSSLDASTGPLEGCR
# [3] = biological target: T2, Protein kinase C iota type (Homo sapiens) (UniProt P41743); test: Selectivity interaction (KinomeScan (DiscoverX)) EUB0001079a PRKCI; details: at 1 µM
# T2 sequence (whole entry): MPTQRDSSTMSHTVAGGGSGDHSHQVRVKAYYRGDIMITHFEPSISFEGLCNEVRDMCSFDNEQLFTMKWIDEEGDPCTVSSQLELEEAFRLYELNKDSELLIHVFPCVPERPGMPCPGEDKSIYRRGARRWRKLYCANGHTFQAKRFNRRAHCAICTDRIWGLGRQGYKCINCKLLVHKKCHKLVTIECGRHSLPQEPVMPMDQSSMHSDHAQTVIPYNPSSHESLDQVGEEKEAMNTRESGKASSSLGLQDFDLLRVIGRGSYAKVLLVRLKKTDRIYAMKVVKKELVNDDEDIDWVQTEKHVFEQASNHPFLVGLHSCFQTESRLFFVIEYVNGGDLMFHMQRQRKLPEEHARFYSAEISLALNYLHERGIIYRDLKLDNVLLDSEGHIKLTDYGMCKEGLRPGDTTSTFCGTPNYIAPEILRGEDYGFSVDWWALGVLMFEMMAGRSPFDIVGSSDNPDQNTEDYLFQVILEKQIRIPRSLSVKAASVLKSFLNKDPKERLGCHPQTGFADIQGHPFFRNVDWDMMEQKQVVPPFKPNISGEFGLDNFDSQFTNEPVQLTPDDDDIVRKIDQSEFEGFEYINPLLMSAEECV
# [4] = biological target: T3, Serine/threonine-protein kinase Chk1 (Homo sapiens) (UniProt O14757); test: Selectivity interaction (KinomeScan (DiscoverX)) EUB0001079a CHEK1; details: at 1 µM
# T3 sequence (whole entry): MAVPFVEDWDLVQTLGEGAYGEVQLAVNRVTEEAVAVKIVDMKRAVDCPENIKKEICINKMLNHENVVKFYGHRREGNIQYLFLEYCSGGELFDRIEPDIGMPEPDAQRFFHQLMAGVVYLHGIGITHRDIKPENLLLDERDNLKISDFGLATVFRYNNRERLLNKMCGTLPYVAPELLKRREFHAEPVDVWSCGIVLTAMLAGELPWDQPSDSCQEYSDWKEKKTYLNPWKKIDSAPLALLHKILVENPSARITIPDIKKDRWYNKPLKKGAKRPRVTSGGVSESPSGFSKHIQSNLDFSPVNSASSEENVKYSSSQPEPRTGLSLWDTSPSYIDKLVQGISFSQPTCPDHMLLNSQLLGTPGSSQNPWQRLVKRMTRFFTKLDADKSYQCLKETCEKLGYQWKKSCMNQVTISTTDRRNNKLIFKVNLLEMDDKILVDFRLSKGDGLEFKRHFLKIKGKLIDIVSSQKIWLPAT
# [5] = biological target: Cyclin-dependent kinase 9 (Homo sapiens, UniProt P50750); test: Selectivity interaction (KinomeScan (DiscoverX)) EUB0000666a CDK9; details: at 10 µM
# Sequence of Cyclin-dependent kinase 9 (P50750 whole entry): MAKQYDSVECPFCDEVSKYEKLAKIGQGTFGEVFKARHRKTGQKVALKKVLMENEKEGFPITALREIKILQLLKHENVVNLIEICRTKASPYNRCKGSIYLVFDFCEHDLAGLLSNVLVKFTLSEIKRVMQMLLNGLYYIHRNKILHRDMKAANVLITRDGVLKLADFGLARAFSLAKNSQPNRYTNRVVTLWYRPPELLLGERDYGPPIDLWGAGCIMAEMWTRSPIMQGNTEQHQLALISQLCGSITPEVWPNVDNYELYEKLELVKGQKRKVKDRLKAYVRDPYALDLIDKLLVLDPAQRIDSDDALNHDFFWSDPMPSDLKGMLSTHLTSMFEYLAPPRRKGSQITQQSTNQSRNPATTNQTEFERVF
# [6] = biological target: Ephrin type-A receptor 2 (Homo sapiens) (UniProt P29317); test: Selectivity interaction (KinomeScan (DiscoverX)) EUB0000666a EPHA2; details: at 10 µM
# [7] = biological target: Vascular endothelial growth factor receptor 2 (Homo sapiens, UniProt P35968); test: Selectivity interaction (Kinase panel (33PanQinase(R) Activity Assay)) EUB0000877a KDR
# Sequence of Vascular endothelial growth factor receptor 2 (P35968 whole entry): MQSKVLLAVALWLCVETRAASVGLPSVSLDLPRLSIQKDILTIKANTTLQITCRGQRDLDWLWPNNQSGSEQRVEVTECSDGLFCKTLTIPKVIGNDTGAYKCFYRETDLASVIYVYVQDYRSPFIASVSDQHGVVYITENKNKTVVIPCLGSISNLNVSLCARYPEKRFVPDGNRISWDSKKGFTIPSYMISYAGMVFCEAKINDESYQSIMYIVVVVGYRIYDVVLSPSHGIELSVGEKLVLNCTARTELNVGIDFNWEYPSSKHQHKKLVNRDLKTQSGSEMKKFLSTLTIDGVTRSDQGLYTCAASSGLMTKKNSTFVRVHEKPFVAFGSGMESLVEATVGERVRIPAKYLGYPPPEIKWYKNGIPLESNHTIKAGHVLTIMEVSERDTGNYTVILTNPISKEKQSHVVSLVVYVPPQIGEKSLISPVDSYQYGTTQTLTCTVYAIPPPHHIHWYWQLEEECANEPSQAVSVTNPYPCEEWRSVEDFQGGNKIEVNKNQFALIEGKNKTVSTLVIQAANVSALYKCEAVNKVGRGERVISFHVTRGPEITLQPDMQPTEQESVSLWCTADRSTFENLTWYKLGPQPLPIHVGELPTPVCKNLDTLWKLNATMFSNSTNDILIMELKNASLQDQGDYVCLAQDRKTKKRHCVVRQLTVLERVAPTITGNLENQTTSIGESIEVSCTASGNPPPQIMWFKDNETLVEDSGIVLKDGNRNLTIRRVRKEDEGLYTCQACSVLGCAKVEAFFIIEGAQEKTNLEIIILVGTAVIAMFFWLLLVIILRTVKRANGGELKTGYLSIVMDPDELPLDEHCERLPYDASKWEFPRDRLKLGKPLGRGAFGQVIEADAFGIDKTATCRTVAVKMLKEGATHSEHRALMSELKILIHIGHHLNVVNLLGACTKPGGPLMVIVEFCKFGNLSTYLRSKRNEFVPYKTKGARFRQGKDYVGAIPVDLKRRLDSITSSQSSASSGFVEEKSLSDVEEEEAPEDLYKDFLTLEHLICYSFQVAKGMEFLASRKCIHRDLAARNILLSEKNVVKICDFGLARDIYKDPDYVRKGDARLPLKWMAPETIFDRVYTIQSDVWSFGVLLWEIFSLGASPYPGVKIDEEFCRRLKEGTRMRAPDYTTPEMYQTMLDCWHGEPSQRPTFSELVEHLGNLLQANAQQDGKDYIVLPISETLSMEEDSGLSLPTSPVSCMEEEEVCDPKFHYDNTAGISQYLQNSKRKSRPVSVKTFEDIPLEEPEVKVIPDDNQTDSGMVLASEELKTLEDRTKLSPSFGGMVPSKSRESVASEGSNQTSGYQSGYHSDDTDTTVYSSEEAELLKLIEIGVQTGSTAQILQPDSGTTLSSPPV
# [8] = biological target: Vascular endothelial growth factor receptor 3 (Homo sapiens, UniProt P35916); test: Selectivity interaction (KinomeScan (DiscoverX)) EUB0001619a FLT4; details: at 1 µM
# [9] = biological target: Vascular endothelial growth factor receptor 1 (Homo sapiens) (UniProt P17948); test: Selectivity interaction (SelectScreen profiling (Invitrogen)) EUB0000607a FLT1; details: at 2 µM
# [10] = biological target: Ribosomal protein S6 kinase alpha-4 (Homo sapiens) (UniProt O75676); test: Selectivity interaction (SelectScreen profiling (Invitrogen)) EUB0000607a RPS6KA4; details: at 2 µM
# [11] = biological target: T4, cAMP-dependent protein kinase catalytic subunit PRKX (Homo sapiens) (UniProt P51817); test: Selectivity interaction (KinomeScan (DiscoverX)) EUB0000607a PRKX; details: at 10 µM
# T4 sequence (whole entry): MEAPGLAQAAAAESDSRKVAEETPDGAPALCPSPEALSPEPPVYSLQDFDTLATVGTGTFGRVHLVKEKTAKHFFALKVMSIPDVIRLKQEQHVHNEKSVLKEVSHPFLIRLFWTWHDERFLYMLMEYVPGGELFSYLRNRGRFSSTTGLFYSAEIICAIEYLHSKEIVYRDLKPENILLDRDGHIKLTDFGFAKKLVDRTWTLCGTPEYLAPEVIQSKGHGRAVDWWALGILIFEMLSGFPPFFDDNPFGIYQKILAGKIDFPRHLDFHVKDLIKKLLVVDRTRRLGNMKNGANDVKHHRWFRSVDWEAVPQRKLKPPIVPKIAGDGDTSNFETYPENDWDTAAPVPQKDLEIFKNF
# [12] = biological target: Serine/threonine-protein kinase WNK1 (Homo sapiens) (UniProt Q9H4A3); test: Selectivity interaction (ActivX KiNativ screen (kinase selectivity in THP-1 cell lysates)) EUB0000639a WNK1; assay type: subcellular; details: lysate
# Sequence of Serine/threonine-protein kinase WNK1 (Homo sapiens) (Q9H4A3 whole entry, looked up): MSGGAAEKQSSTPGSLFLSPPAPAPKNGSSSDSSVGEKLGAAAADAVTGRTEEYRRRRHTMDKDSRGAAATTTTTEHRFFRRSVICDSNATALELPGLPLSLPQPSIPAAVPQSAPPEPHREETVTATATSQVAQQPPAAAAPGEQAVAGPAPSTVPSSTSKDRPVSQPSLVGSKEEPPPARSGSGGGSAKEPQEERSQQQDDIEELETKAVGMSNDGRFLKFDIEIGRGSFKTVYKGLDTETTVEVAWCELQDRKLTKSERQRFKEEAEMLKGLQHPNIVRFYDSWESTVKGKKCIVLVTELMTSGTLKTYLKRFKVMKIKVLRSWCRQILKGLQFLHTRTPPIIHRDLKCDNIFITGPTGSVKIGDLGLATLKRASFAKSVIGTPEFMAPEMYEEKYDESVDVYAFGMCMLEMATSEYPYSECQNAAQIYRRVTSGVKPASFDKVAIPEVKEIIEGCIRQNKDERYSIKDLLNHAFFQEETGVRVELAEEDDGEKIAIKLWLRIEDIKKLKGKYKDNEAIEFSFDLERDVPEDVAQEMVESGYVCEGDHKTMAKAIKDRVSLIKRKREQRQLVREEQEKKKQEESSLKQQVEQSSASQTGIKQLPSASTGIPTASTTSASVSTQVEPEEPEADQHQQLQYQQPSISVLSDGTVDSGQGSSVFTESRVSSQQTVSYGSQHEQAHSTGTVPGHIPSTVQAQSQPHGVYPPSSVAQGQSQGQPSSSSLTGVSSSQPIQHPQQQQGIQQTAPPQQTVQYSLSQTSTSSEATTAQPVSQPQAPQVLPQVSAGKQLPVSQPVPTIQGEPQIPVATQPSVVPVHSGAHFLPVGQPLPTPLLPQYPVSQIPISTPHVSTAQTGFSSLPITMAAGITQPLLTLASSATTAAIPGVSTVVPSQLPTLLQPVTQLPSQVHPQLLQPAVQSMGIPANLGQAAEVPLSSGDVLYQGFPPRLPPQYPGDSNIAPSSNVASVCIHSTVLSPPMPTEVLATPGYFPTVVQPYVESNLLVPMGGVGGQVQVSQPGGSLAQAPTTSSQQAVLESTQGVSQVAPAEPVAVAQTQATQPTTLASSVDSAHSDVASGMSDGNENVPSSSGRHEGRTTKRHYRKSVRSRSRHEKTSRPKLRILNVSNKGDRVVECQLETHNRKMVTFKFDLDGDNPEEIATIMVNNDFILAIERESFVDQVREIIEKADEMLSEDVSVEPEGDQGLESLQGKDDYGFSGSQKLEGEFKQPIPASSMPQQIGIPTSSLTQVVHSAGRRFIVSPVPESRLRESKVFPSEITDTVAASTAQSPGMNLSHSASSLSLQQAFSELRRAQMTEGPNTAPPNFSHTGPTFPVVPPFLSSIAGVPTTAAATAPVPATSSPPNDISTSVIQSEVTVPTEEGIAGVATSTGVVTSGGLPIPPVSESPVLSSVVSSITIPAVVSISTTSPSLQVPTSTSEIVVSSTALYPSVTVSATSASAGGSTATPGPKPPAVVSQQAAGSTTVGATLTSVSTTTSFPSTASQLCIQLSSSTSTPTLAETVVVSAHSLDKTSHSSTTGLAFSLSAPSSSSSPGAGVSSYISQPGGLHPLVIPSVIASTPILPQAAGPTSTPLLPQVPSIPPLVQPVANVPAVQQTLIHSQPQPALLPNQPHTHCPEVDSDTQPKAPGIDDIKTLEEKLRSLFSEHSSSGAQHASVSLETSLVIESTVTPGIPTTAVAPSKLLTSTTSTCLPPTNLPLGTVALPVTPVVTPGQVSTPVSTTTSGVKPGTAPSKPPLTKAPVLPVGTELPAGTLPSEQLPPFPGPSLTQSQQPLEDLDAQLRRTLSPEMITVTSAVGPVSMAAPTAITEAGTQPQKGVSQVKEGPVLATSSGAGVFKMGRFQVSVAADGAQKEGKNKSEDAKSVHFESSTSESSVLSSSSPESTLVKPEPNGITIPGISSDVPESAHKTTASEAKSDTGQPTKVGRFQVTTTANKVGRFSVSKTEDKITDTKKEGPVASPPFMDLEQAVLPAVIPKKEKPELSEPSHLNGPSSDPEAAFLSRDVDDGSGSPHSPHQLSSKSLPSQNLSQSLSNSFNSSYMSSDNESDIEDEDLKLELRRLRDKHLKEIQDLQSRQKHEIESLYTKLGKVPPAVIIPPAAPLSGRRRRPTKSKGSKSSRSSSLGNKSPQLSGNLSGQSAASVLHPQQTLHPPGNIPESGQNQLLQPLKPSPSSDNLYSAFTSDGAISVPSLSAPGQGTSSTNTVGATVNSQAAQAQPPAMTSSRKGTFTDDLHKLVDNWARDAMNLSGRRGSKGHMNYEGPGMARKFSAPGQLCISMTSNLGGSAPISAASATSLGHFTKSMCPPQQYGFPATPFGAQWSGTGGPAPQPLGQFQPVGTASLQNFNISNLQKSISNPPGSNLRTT
structure (smiles),measurement,setting,value
COc1cc(N(C)c2ccnc3ccc(C(F)(F)F)cc23)cc(OC)c1OC,% binding,[1],72%
CN(C(=O)c1cnn2cccnc12)c1cc2c(cc1N1CCOCC1)C(=O)N(C[C@@H](F)C(C)(C)O)C2,dTM,[2],0.5 K
Nc1cnc(N2CCc3cc(S(=O)(=O)Nc4c(F)cc(Cl)cc4F)cc(N4CCCC4=O)c32)nc1 [TP-020n],% of control,[3],100%
same,% of control,[4],95%
O=C(NOC[C@H](O)CO)c1ccc(F)c(F)c1Nc1ccc(I)cc1F,% of control,[5],76%
same,% of control,[6],88%
CCC(=O)N1CC[C@H](Nc2ncnc3c2CN(c2cnc(OC)c(C(F)(F)F)c2)CC3)C1 [LENIOLISIB],IC50,[7],> 10 µM
N#Cc1cccc(-c2c[nH]c3ncnc(N4CCOCC4)c23)c1,% of control,[8],100%
CNC(=O)Nc1ccc(-c2nc(N3CC4CCC(C3)O4)c3cnn(C4CCC5(CC4)OCCO5)c3n2)cc1,% of inhibition,[9],8%
same,% of inhibition,[10],1%
same,% of control,[11],100%
CC[C@@H]1[C@H](F)C(=O)N[C@@H]1COc1nccc2cc(C(N)=O)c(OC)cc12 [ZIMLOVISERTIB],% of inhibition,[12]; at 0.01 µM,10.1%
same,% of inhibition,[12]; at 0.04 µM,23.3%
same,% of inhibition,[12]; at 0.2 µM,9.7%
same,% of inhibition,[12]; at 1 µM,3.1%
same,% of inhibition,[12]; at 5 µM,3%
